These results are taken from PubChem BioAssay (NCI).

Holding throughout (experiment): NCI tumour cell line growth inhibition, 48 h
The subject of experiment [1] is HCC-2998 colon.
Experiment [2] deals with COLO 205 colon.
The test system of experiment [3] is SW-620 colon.
Experiment [4] deals with NCI-H460 lung.
Experiment [5] has as its system LOX IMVI melanoma.
Experiment [6] deals with SF-539 CNS.
Experiment [7] deals with M14 melanoma.
Experiment [8] relates to 786-0 renal.
Experiment [9] concerns A498 renal.

The structures appear in SMILES notation.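 All cell lines were grown in 96-well plates and treated with compound for 48 hours. Abbreviation: GI50, concentration required for 50% inhibition of growth. TGI denotes the concentration required for complete inhibition of growth.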

Turning to `O=S(=O)(c1ccccc1)C1(C2(S(=O)(=O)c3ccccc3)CCN=N2)CCN=N1` (configuration not stated), the TGI in [1], in [2], in experiment [3], in experiment [4], in [5] and in experiment [6] was greater than 100 µM throughout. The TGI in [7] and in experiment [8] was greater than 100 µM throughout.
`CCCOC(=O)C1C(c2ccc(OC)cc2)NC(c2ccc(OC)cc2)C(C(=O)OCCC)S1(=O)=O` (configuration not stated): the GI50 in [1], in experiment [2], in experiment [3], in [6], in experiment [7] and in experiment [8] was greater than 100 µM in each case. In addition, the TGI in [1], in experiment [2], in experiment [3], in experiment [6], in experiment [9] and in [7] was greater than 100 µM each time. Also, the TGI in experiment [8] is greater than 100 µM.
Consider `COC(=O)C(C(=O)C(=O)Nc1nc2ccc(OC)cc2s1)c1cnc2ccccc2n1` (configuration not stated), for which the TGI in [1], in experiment [2], in experiment [3], in experiment [4], in [5] and in experiment [6] was greater than 100 µM each time. The TGI in experiment [9], in experiment [7] and in [8] was greater than 100 µM in each case.
In the case of `O=C1CC2=CCCC2O1` (configuration not stated), the TGI in experiment [1], in [2], in [3], in [4], in [5] and in experiment [6] was greater than 100 µM in each case. In addition, the TGI in experiment [9], in [7] and in [8] was greater than 100 µM in each case.
On to `CC[P+](C)(C)CC`, for which the TGI in experiment [1], in experiment [2], in [3], in experiment [4], in [5] and in [6] was greater than 100 µM each time. Besides, the TGI in [7] and in [8] was greater than 100 µM throughout.
As to `Oc1ccc(Br)cc1C=Nc1ccc(Oc2ccc(N=Cc3cc(Br)ccc3O)cc2)cc1`, the TGI in experiment [1], in experiment [2], in experiment [3], in [4], in experiment [5] and in experiment [6] was greater than 19.6 µM throughout. Further, the TGI in experiment [9], in experiment [7] and in experiment [8] was greater than 19.6 µM throughout.
For the compound `COc1ccc(C2=NC(CO)[C@H](c3ccccc3)O2)cc1OC` (some centres not stated), the TGI in [1], in [2], in experiment [3], in experiment [4], in experiment [5] and in [6] was greater than 100 µM throughout. In addition, the TGI in [9], in experiment [7] and in experiment [8] was greater than 100 µM each time.
Take `CC[C@@]1(O)C(=O)OCc2c1cc1n(c2=O)Cc2cc3c(N)c(OC)ccc3nc2-1`: the GI50 in experiment [1] was 0.155 µM; in [2], 0.263 µM; in experiment [3], 0.137 µM; in [4] it was 13 nM; in [5], 21.6 nM; in [6], 0.0139 µM. The GI50 in experiment [9] is 156 nM; in [7] it was 0.0403 µM; in [8] it was less than 0.0157 µM. Besides, the TGI in experiment [1] was 0.373 µM; in [2] it was 2.69 µM; in experiment [3], 2.87 µM; in experiment [4], 0.111 µM; in [5], 0.151 µM; in [6], 0.0932 µM. Further, the results for the TGI in experiment [9], in [7] and in experiment [8] were 0.726 µM, 0.339 µM and 0.0738 µM, respectively.
Take `O=S(=O)([O-])c1ccc(C=Nc2ccccc2)c([O-])c1.O=S(=O)([O-])c1ccc(C=Nc2ccccc2)c([O-])c1.[Co+2]`: the GI50 was greater than 100 µM in experiment [1]; 70.5 µM in experiment [2]; 6.96 µM in experiment [3]; 3010 nM in experiment [5]; 32.6 µM in experiment [6]; 6.5 µM in experiment [7]. The GI50 in experiment [8] is 94.7 µM. In addition, the TGI in experiment [1], in experiment [2], in [3], in experiment [5], in experiment [6] and in experiment [7] was greater than 100 µM in each case. The compound further yielded a TGI in experiment [8] greater than 100 µM.
For the compound `O=C1c2ccccc2C(=O)N1CCN(CCN1C(=O)c2ccccc2C1=O)Cc1ccccc1`, the TGI in experiment [2], in experiment [3], in experiment [4], in [5], in experiment [9] and in experiment [7] was greater than 100 µM in each case. The compound also came in with a TGI in [8] greater than 100 µM.
In the case of `COc1ccc(C)cc1-c1ccc(-c2cc(C)ccc2OC)o1`, the TGI in experiment [1], in experiment [2], in experiment [3], in experiment [4], in experiment [5] and in experiment [6] was greater than 100 µM in each case. In addition, the TGI in [9], in experiment [7] and in experiment [8] was greater than 100 µM in each case.
`COc1cc(Br)c(C=Nc2cccc3ccc(OS(=O)(=O)c4ccc([N+](=O)[O-])cc4)cc23)cc1OC`: the TGI in experiment [1], in [2], in experiment [3], in [4], in experiment [5] and in experiment [6] was greater than 100 µM each time. For the same compound, the TGI in experiment [9] and in experiment [8] was greater than 100 µM throughout.
Take `O=C1C=C(c2ccccc2)NC1(c1ccccc1)c1cc(-c2ccccc2)[nH]c1-c1ccccc1` (configuration not stated): the TGI in experiment [1], in experiment [2], in experiment [3], in [4], in experiment [6] and in experiment [9] was greater than 100 µM throughout. The TGI in [7] and in experiment [8] was greater than 100 µM in each case.
Regarding `C=CCN=C1NC(=O)C(CC(=O)Nc2ccc([N+](=O)[O-])cc2[N+](=O)[O-])S1` (configuration not stated), the TGI in experiment [1], in [2], in experiment [3], in [4], in experiment [6] and in experiment [9] was greater than 100 µM throughout. For the same compound, the TGI in [7] and in experiment [8] was greater than 100 µM each time.
Take `CC(C)CC1CC2C(=O)N(c3ccccc3)C(=O)C2c2[nH]c3ccccc3c21` (configuration not stated): the TGI is greater than 31.6 µM in experiment [1]; greater than 100 µM in experiment [2]; greater than 100 µM in experiment [3]; greater than 100 µM in [4]; greater than 87.8 µM in experiment [5]; 99.4 µM in experiment [6]. Besides, the TGI is greater than 51.3 µM in experiment [9], greater than 100 µM in experiment [7] and greater than 100 µM in experiment [8].
`NNC(=O)C(=O)N/N=C1\CCCC1C(=O)CCC(=O)Nc1cccc(Cl)c1` (configuration not stated): the TGI in [1], in experiment [2], in experiment [3], in experiment [4], in experiment [5] and in experiment [7] was greater than 100 µM in each case. The compound also showed a TGI in experiment [8] greater than 100 µM.
Take `N/N=C1\C(=O)N(c2ccc(Cl)c(Cl)c2)C(=O)C1C(=O)Nc1ccc(Cl)c(Cl)c1` (configuration not stated): the TGI in experiment [1], in experiment [3], in [4], in experiment [6], in [9] and in experiment [7] was greater than 100 µM each time. The same compound displayed a TGI in experiment [8] greater than 100 µM.
Regarding `CCOC(=O)C(c1ccsc1)P(=O)(OCC)OCC` (configuration not stated), the TGI in experiment [1] worked out at 33.8 µM; in experiment [2], 26.7 µM; in experiment [3] it was 30.8 µM; in experiment [4] it was 66.4 µM; in experiment [5], 19.3 µM; in experiment [6] it was 30.2 µM. Also, the TGI was found to be 26.3 µM in experiment [7] and 31.7 µM in experiment [8].
Take `Cc1ncc2c(n1)CCC1=C2OS(=O)(=O)CC1N(C)C` (configuration not stated): the TGI in experiment [2], in [3], in [4], in [5], in experiment [6] and in [9] was greater than 100 µM each time. Besides, the TGI in experiment [7] and in experiment [8] was greater than 100 µM throughout.
In the case of `CC1(C)CCOC(Sc2ccccc2)C1` (configuration not stated), the TGI in experiment [1], in experiment [2], in experiment [3], in experiment [4], in [5] and in experiment [9] was greater than 100 µM each time. The TGI in experiment [7] and in experiment [8] was greater than 100 µM each time.
For `Nc1ncnc2c1ncn2C1(CO)OC(CO)C(O)C1O` (configuration not stated), the TGI in experiment [1], in experiment [2], in experiment [3], in [4], in [5] and in experiment [9] was greater than 100 µM in each case. For the same compound, the TGI in experiment [7] and in experiment [8] was greater than 100 µM in each case.
